Results from article PMC11225352, “A multicenter, randomized, double-blind, placebo-controlled ascending dose study to evaluate the safety, tolerability, pharmacokinetics (PK) and pharmacodynamic (PD) effects of Posiphen in subjects with early Alzheimer’s Disease” (Alzheimer's Research & Therapy, 2024).
Marks after values point to notes of the source that are not given here.

How the values were obtained:
[1] = CSF pharmacokinetics of Posiphen and its N1 and N8 metabolites (lumbar catheter sampling, LC-MS); assay type: in vivo, human; conditions: for mean levels averaged over 24 h of CSF sampling: after 21–23 days, early AD
Excerpt: (§1) For the confinement visit, subjects arrived in the early morning after an overnight fast. Physical and neurological examination, vital signs, and assessment of compliance were completed and blood was drawn for safety laboratory tests. An intravenous line and a second line for repeated blood draw were placed. To sample CSF, the intrathecal space was accessed using a Perifix 18G Touhy Epidural Needle (90 mm), and a Polyamide Epidural Catheter (20G Closed Tip) was inserted and fixed in place by an Anesthesiologist. Participants received the last day’s dosing of study drug or placebo. Initial blood and CSF samples were drawn, intravenous infusion of ^13C6-leucine was started and continued for 9 h, during which time subjects received a low leucine diet. Blood and CSF were sampled every 2 h for 36 h. After 36 h, intravenous lines and the CSF catheter were removed, vital signs were measured, physical exam performed, and blood and CSF were sent for routine laboratory studies. […] If postural headache was present, a blood patch was performed. Once stable, participants underwent a brief exam and vital sign check and were discharged. They received a phone call 24 h after discharge to check on their wellbeing.
(§2) For biochemical analysis to derive data for SILK, ^13C6-leucine was analyzed in plasma and CSF by mass spectrometry, and Aβ peptides in CSF were analyzed by immunoprecipitation-mass spectrometry (IP-MS) as previously described, by C2N Diagnostics (St Louis, MO). CSF levels of sAPPα, sAPPβ, Aβ38, 40 and 42 were analyzed by the ADCS Biomarker Core using Mesoscale Discovery (MSD) electrochemiluminescent assays (Mesoscale Discovery, Rockville, MD). Levels of Posiphen and its N1 and N8 metabolites in plasma and CSF were measured by Charles River Laboratories (Montreal, CA) by high-performance liquid chromatographic mass spectrometry, with use of deuterated Posiphen (procured by Charles River Laboratories) as an internal standard.
(§3) A prespecified Statistical Analysis Plan (SAP) was prepared and finalized before the database lock occurred. For safety and tolerability, frequencies of adverse events, serious adverse events and laboratory abnormalities between the participants across the three groups are compared, using Pearson’s χ [2] or ANOVA, as appropriate. Plasma concentration-time data are analyzed by non-compartmental methods using WinNonlin version 6.2.1 or greater. Calculations are based on the actual sampling times recorded during the study. For PK analysis, only the subjects receiving Posiphen are included.
(§4) Noncompartmental pharmacokinetic parameters were estimated using Phoenix WinNonlin v8.3 (Certara, Princeton, NJ). Levels and parameters (Cmax, AUC) of posiphen, n-1 and n-8 metabolites were highly correlated in plasma and CSF. For the BID and TID doses the expected post dose plasma peaks appeared attenuated.

[2] = Plasma pharmacokinetics of Posiphen and its N1 and N8 metabolites (LC-MS, non-compartmental); assay type: in vivo, human; conditions: for AUC0 − 24 in plasma, dose proportionality: between once daily and twice daily dosing; for mean levels averaged over 24 h of CSF sampling / AUC0 − 24 / Cmax / Tmax: plasma; for mean levels averaged over 24 h of CSF sampling: after 21–23 days, early AD
Excerpt: as §1, §2, §3, §4

Aβ = system: Aβ; parameters: method as in PMID 24828079; conditions: mice and cognitively normal humans (aged 18–50), single dose of 60 mg; cited from earlier work
[3] = 60 mg BID (n = 5), geometric mean (% geometric CV)
[4] = 60 mg BID (n = 5), median (min-max)
[5] = 60 mg daily (n = 4; N1: only one participant measurable), geometric mean (% geometric CV)
[6] = 60 mg daily (n = 4; N1: only one participant measurable), median (min-max)
[7] = 60 mg daily (n = 4), geometric mean (% geometric CV)
[8] = 60 mg daily (n = 4), median (min-max)

Compound	mean levels averaged over 24 h of CSF sampling ([1]; 60 mg (n = 5))	mean levels averaged over 24 h of CSF sampling ([1]; 60 mg BID (n = 5))	AUC0 − 24 [1, 3]	Cmax [1, 3]	Tmax [1, 4]	mean levels averaged over 24 h of CSF sampling ([1]; 60 mg TID (n = 1))	AUC0 − 24 [1, 5]	Cmax [1, 5]	Tmax [1, 6]	AUC0 − 24 in plasma, dose proportionality [2]	mean levels averaged over 24 h of CSF sampling ([2]; 60 mg BID (n = 5))	AUC0 − 24 [2, 3]	Cmax [2, 3]	Tmax [2, 4]	AUC0 − 24 ([2]; 60 mg TID (n = 1))	Cmax ([2]; 60 mg TID (n = 1))	Tmax ([2]; 60 mg TID (n = 1))	mean levels averaged over 24 h of CSF sampling ([2]; 60 mg TID (n = 1))	AUC0 − 24 [2, 7]	Cmax [2, 7]	further results
CN1CC[C@]2(C)c3cc(OC(=O)Nc4ccccc4)ccc3NC12 (stereo partly drawn) [N8]	0.35 ± 0.26 ng/mL	0.77 ± 0.43 ng/mL	17.88 (58.47) hr*ng/mL	1.41 (39.33) ng/mL	12 (4–20) hr	0.15 ng/mL	8.91 (47.91) hr*ng/mL	1.01 (14.14) ng/mL	4 (2–8) hr	increased approximately proportionally	5.04 ± 1.80 ng/mL	113.65 (44.01) hr*ng/mL	10.01 (27.79) ng/mL	12 (2–20) hr	80.40 ng·h/mL	5.41 ng/mL	2 h	3.35 ng/mL	66.02 (20.83) hr*ng/mL	6.81 (25.10) ng/mL	AUC0 − 24 ([1]; 60 mg TID (n = 1)): 6.26 ng·h/mL; Cmax ([1]; 60 mg TID (n = 1)): 0.62 ng/mL; Tmax ([1]; 60 mg TID (n = 1)): 12 h; Tmax [2, 8]: 3 (3–4) hr; mean levels averaged over 24 h of CSF sampling ([2]; 60 mg once daily (n = 5)): 2.25 ± 1.36 ng/mL
CN1c2ccc(OC(=O)Nc3ccccc3)cc2[C@]2(C)CCN[C@H]12 [N1]	0.02 ± 0.04 ng/mL	0.28 ± 0.30 ng/mL	8.75 (83.50) hr*ng/mL	0.90 (31.32) ng/mL	12 (4–20) hr	0.00 ng/mL	1.33* hr*ng/mL	0.66* ng/mL	4* hr	increased approximately proportionally	3.02 ± 1.40 ng/mL	65.06 (58.61) hr*ng/mL	6.96 (32.01) ng/mL	12 (2–20) hr	60.18 ng·h/mL	5.48 ng/mL	2 h	2.51 ng/mL	36.60 (19.24) hr*ng/mL	5.43 (21.98) ng/mL	Tmax [2, 8]: 2 (2–4) hr; mean levels averaged over 24 h of CSF sampling ([2]; 60 mg once daily (n = 5)): 1.29 ± 0.77 ng/mL
CN(C)CCCC1(c2ccc(F)cc2)OCc2cc(C#N)ccc21 (stereo not drawn) [citalopram]																					Aβ production (SILK) (Aβ): decreased
